Reference: article PMC11009412, “Pathogenic mutations of human phosphorylation sites affect protein–protein interactions” (Nature Communications, 2024)
“Also recorded” adds a separate entry of the source.

What was measured:
[1] = test system: BirA*-FLAG-GATAD1 variants in Flp-In-293 cells; experiment: BioID proximity labelling of full-length GATAD1 variants (SILAC); type: cell-based, human; settings: GATAD1 WT vs S102P, significant proteins only; for Log2_Ratio.H.L.normalized.WT_S102P_forward: forward experiment (label swap performed, sign inverted against the H/L ratio); for Log2_Ratio.H.L.normalized.WT_S102P_forward / Log2_Ratio.H.L.normalized.WT_S102P_reverse: log2 of normalized H/L ratio; for Ratio.H.L.normalized.WT_S102P_forward: forward experiment; for Log2_Ratio.H.L.normalized.WT_S102P_reverse / Ratio.H.L.normalized.WT_S102P_reverse: reverse experiment
Description: The GATAD1 gene variants were ordered in a pTwist ENTR Kozak vector from Twist Bioscience. The genes were then transferred to a pDEST_pcDNA5_BirA_FLAG_Nterm vector[97] using the Gateway Clonase II system (Thermo Fisher Scientific). The resulting vectors, pEXPR_GATAD1-WT_N-term_BirA_FLAG, pEXPR_GATAD1-S102P_N-term_BirA_FLAG, pEXPR_GATAD1-S102D_N-term_BirA_FLAG, and pEXPR_GATAD1-S102A_N-term_BirA_FLAG, were used to generate tetracycline-inducible stable Flp-In^TM-293 T-REx cells. A 6-well plate was co-transfected with 0.5 µg of the pEXPR plasmid and 1 µg of the pOG44 Flp-recombinase expression vector (Thermo Fisher Scientific) using 4.5 µg of PEI (Polysciences) as a transfection reagent. The following day, the cells were trypsinized and transferred to a 10 cm dish containing DMEM supplemented with 10% FCS and 200 µg/ml hygromycin B (Invivogen) for selection. The cells were cultured for approximately 18 days with media exchange every 3 days until visible colonies were observed. After around 18 days, the colonies were trypsinized and transferred to another 10 cm dish for further characterization and experiments.
Stable Flp-In^TM-293 cell lines expressing GATAD1 variants were cultured using SILAC light (Lys0, Arg0) and SILAC heavy (Lys8, Arg10) media, as explained in the cell culture section. After full labeling, cells were split into 15 cm dishes and were treated with 1 μg/mL tetracycline for 24 h to induce the expression of GATAD1. After the induction period, cells were incubated with 50 μM biotin overnight for proximity biotinylation. As a control, wild-type GATAD1 cells, without biotin or tetracycline addition, were used. Samples were multiplexed, as shown in Supplementary Fig. 41A with both forward and reverse label swap (n = 2). Cells were then lysed in lysis buffer (50 mM Tris-HCl pH 7.5, 150 mM NaCl, 1% Triton X-100, 1 mM EDTA, 1 mM EGTA, 0.1% SDS) with freshly added protease inhibitors and 1% sodium deoxycholate. To digest the excess DNA, 1 μl of Benzonase was added, and the samples were incubated for 20 min at 37 °C. Biotinylated proteins were enriched for 3 h at 4 °C using streptavidin-sepharose beads (GE Cat# 17-5113-01). Beads were pre-washed twice with 0.01% BSA and twice with lysis buffer. After enrichment, the beads were washed one time with lysis buffer, two times with washing buffer (50 mM HEPES-KOH pH 8.0, 100 mM KCl, 10% glycerol, 2 mM EDTA, 0.1% NP-40), and six times with 50 mM ammonium bicarbonate. Beads were resuspended in ammonium bicarbonate, and an on-bead protein digest with 1 μg of trypsin followed overnight. The next day, the digested proteins were transferred to a fresh tube and were incubated with 10 mM DTT for 30 min at 37 °C and with 55 mM iodoacetamide for 20 min at 37 °C in the dark. Samples were desalted with StageTips.
Peptides were separated using reversed-phase liquid chromatography (EASY nLC II 1200, Thermo Fisher Scientific) with self-made C18 microcolumns (20 cm long) packed with ReproSil-Pur C18-AQ 1.9 μm resin (Dr. Maisch, cat# r119.aq.0001). The chromatography system was coupled online to the electrospray ion source (Proxeon) of an Orbitrap Exploris 480 mass spectrometer (Thermo Fisher Scientific). The mobile phase consisted of buffer A (0.1% formic acid and 5% acetonitrile) and buffer B (0.1% formic acid and 80% acetonitrile). Peptides were eluted using a gradient with increasing concentrations of buffer B over 110 minutes, at a flow rate of 250 nl/min. Mass spectrometry data was acquired in data-dependent mode with settings for one full scan (resolution: 60,000; m/z range: 350–1600; normalized AGC target: 300%; maximum injection time: 10 ms), followed by top 20 MS/MS scans using higher-energy collisional dissociation (resolution: 15,000; m/z range: 200–2000; normalized AGC target: 100%; maximum injection time: 120 ms; isolation width: 1.3 m/z; normalized collision energy: 28%).
Raw files were analyzed with MaxQuant, version 2.0.3.0. […]

[2] = target: T1, 14-3-3 epsilon (YWHAE) (Homo sapiens, UniProt P62258); experiment: Isothermal titration calorimetry (ITC) of GATAD1 peptides with 14-3-3ε; type: binding; settings: 18 °C, 400 µM peptide in syringe, 25 µM 14-3-3ε in chamber, 20 mM HEPES pH 7.0, 150 mM NaCl, 2 mM DTT
T1 construct: residues 1 and 236-255 are disordered and therefore not visible in the electron density; GST (N, cleaved yes); made in house; host or cells: Escherichia coli C41 (DE3)
T1 sequence (P62258 1-255): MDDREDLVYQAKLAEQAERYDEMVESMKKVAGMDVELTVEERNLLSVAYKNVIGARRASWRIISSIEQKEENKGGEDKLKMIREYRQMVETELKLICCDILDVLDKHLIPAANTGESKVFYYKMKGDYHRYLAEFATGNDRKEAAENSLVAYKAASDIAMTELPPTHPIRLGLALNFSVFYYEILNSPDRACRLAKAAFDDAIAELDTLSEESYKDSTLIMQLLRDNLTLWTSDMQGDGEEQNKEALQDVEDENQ
Experimental: The 14-3-3ε (YWHAE) cDNA was purchased from Twist Bioscience in the pTwist Chlor High Copy vector and cloned into the pGEX6P1 plasmid (GE Healthcare) for recombinant expression as a GST-fusion protein followed by a Prescission protease cleavage site. The plasmid was freshly transformed into Escherichia coli C41 (DE3) cells. Cultures were grown in terrific broth supplemented with ampicillin (100 μg/ml) at 37 °C and 80 rpm until an optical density at 600 nm of 0.7 was reached. […] Cells were harvested by centrifugation at 4000 g and frozen at −20 °C.
Following resuspension in lysis buffer (50 mM HEPES/NaOH pH 7.5, 500 mM NaCl and 3 mM Dithiothreitol (DTT)) supplemented with 1 mg deoxyribonuclease I (DNaseI, Roche) and protease inhibitor 4-(2-Aminoethyl) benzenesulfonyl fluoride hydrochloride S7(AEBSF), cells were disrupted using a microfluidizer (Microfluidics). The cell extract was centrifuged at 55,000 g for 45 min at 4 °C to remove insoluble parts. The cleared supernatant was applied onto a prepacked Glutathione Sepharose 4B column (Cytiva) equilibrated in the lysis buffer. The column was extensively washed with lysis buffer. To cleave off the GST tag, 1 mg PreScission protease was diluted in 5 ml OCC buffer (50 mM HEPES/NaOH pH 7.5, 150 mM NaCl, and 3 mM DTT), applied to the column material, and incubated overnight at 4 °C. Cleaved 14-3-3ε protein was eluted from the column using OCC buffer, concentrated and loaded onto an 16/60 S200 column (Cytiva) equilibrated in SEC buffer (20 mM HEPES/NaOH pH 7.5, 150 mM NaCl and 2 mM DTT). Pure and homogenous 14-3-3ε was concentrated to 13 mg/ml, flash-frozen in liquid nitrogen, and stored at −80 °C until further use.
GATAD1 peptides used in these experiments were obtained from JPT peptide technologies with an N-terminus in amine and a C-terminus in amide form with 95% purity. ITC experiments were performed using a PEAQ-ITC microcalorimeter (Malvern). All titrations were performed at 18 °C with 400 µM peptide in the syringe and 25 µM 14-3-3ε in the reaction chamber. The protein and the titration components were dissolved in a buffer containing 20 mM HEPES pH 7.0, 150 mM NaCl, and 2 mM DTT. Malvern software was used for data visualization and fitting. The raw ITC results can be found in Supplementary Fig. 42.

| Interaction with 14-3-3ε by ITC (in words) [2] | Substance | Log2_Ratio.H.L.normalized.WT_S102P_forward [1] | Ratio.H.L.normalized.WT_S102P_forward [1] | Log2_Ratio.H.L.normalized.WT_S102P_reverse [1] | Ratio.H.L.normalized.WT_S102P_reverse [1] | Interaction with 14-3-3ε by ITC (in words) ([2]; listed as non-phosphorylated wild-type peptide) |
| --- | --- | --- | --- | --- | --- | --- |
| – | BCLAF1 | 1.402 | 0.3784 | 1.045 | 2.064 | – |
| – | BOD1L1 | 1.279 | 0.4121 | 1.335 | 2.5226 | – |
| – | HDGFRP2 | 1.523 | 0.348 | 1.484 | 2.7966 | – |
| do not interact | LRNTKYKEAPAAEKK [S102E, phosphomimetic S102E mutant GATAD1 peptide] | – | – | – | – | – |
| do not interact | LRNTKYKSAPAAEKK [GATAD1, wild-type non-phosphorylated GATAD1 15-mer; ITC form with C-terminus in amide form] | – | – | – | – | Neither the non-phosphorylated wild-type peptide nor the peptide with the disease-linked S102P mutation showed detectable binding |
| – | MED1 | 1.28 | 0.4118 | 1.018 | 2.0257 | – |
| – | MGA | 1.435 | 0.3699 | 1.064 | 2.0912 | – |
| – | NCOR1 | 1.327 | 0.3987 | 1.25 | 2.3792 | – |
| – | NPM1 | 1.325 | 0.3991 | 1.034 | 2.0483 | – |
| – | PCF11 | 1.509 | 0.3515 | 1.2027 | 2.3017 | – |
| – | PSME3 | 1.443 | 0.3677 | 1.216 | 2.3229 | – |
| – | PSPGRQNSKAPKLTL [NCOA6, wild-type non-phosphorylated 15-mer] | 1.334 | 0.3966 | 1.3003 | 2.4628 | – |
| – | RBBP6 | 1.156 | 0.4486 | 1.0059 | 2.0082 | – |
| – | TPR | 1.211 | 0.4319 | 1.117 | 2.169 | – |
| – | ZC3H4 | 1.304 | 0.405 | 1.071 | 2.1009 | – |
| – | ZNF318 | 1.385 | 0.3829 | 1.241 | 2.3636 | – |

| Substance | Interaction with 14-3-3ε by ITC (in words) [2] | Log2_Ratio.H.L.normalized.WT_S102P_forward [1] | Ratio.H.L.normalized.WT_S102P_forward [1] | Log2_Ratio.H.L.normalized.WT_S102P_reverse [1] | Ratio.H.L.normalized.WT_S102P_reverse [1] | Interaction with 14-3-3ε by ITC (in words) ([2]; listed as non-phosphorylated wild-type peptide) |
| --- | --- | --- | --- | --- | --- | --- |
| LRNTKYKPAPAAEKK [GATAD1_Ser102Pro, GATAD1 15-mer with the disease-linked S102P mutation] | Neither the non-phosphorylated wild-type peptide nor the peptide with the disease-linked S102P mutation showed detectable binding; also recorded: do not interact | – | – | – | – | – |
